The text below walks through data of article PMC13144739, “Global analysis of cancer cell responses to USP9X inhibition” (The EMBO Journal, 2026).

Data set [1] concerns the target T1, USP9X catalytic domain (Homo sapiens, UniProt Q93008).
T1 construct: His/SUMO (pOPIN-S vector) (N, cleaved yes); made in house; host or cells: E. coli BL21
T1 sequence (Q93008 1551-1970): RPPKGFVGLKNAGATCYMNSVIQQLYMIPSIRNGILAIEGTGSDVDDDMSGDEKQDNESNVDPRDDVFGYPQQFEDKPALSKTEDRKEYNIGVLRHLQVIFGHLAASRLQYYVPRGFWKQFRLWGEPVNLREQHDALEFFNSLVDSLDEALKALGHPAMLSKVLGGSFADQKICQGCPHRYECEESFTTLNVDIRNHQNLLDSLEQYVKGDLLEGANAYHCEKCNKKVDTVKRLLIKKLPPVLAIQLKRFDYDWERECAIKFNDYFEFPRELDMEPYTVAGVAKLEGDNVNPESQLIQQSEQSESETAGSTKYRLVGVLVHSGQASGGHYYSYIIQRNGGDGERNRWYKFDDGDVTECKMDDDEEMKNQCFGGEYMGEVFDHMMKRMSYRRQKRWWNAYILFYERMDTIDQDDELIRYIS
The experiment in a line: Ub-Rho cleavage assay. The class given is biochemical. Conditions: Ub-Rho cleavage, recombinant USP9X catalytic domain (WT). Here is the method:
The reaction was stopped through the addition of 10 mM citric acid. The assay was performed in 384-well format with a total reaction volume of 16 µL. Data was collected using the ClarioSTAR plate reader (BMG Labtech) at an emission of 535 nm. […] IC50 values presented in our study are the mean of three independent biological repeats unless indicated otherwise.

The target in data set [2] is T1, USP9X catalytic domain. Briefly: SPR binding assay. On the procedure: Next, the sample was desalted using PD midiTrap™ G-25 (GE Healthcare) columns following the manufacturer’s instructions and was further purified by SEC, concentrated, and stored at -80 °C. Enzyme activity was tested in a ubiquitin-probe assay. SPR experiments were performed on a Biacore 8 K+ instrument (Cytiva). USP9X catalytic domain with a C-terminal AviTag™ was immobilised in 10 mM HEPES, 150 mM NaCl at pH 7.4 on a Series S Sensor Chip SA (Cytiva) by coupling. […] Running buffer was supplemented with 2% (v/v) DMSO. Multi-cycle kinetics were performed with 120 s associations and 600 s dissociations at 30 µL/min with no further regeneration. Binding constants were determined in Biacore Insight evaluation software (v5.0.18) at steady state, taking the median response over a 5-s window beginning at 10 s before the end of the association phase. Final KD values are the mean of three independent experiments.
For orientation: SPR reads the build-up and loss of mass on a sensor chip optically.

Data set [3] addresses T1, USP9X catalytic domain. The experiment in a line: K48-linked di-ubiquitin cleavage assay. The class given is biochemical. The settings on record: reported USP9X inhibitors; Appendix Fig. S1B,E (diUb cleavage 150 µM, Ub-Rho). On the procedure: For inhibitor activity assays, USP9X catalytic domain (di-ubiquitin cleavage assay: 750 nM, ubiquitin-probe assays: 2.5 µM) was pre-incubated with USP9X inhibitors for 30 min at ambient temperature and subsequently mixed with di-ubiquitin (final concentration 2 µM) in assay buffer (25 mM Tris [pH 8.0], 150 mM NaCl, 10 mM DTT) at pH 8.0 or was mixed with ubiquitin-propargylamide (Ub-PA)/ubiquitin-vinyl sulfonate (Ub-VS) probes at a final concentration of 10 µM in assay buffer. For both assays, the mixture was incubated over a time course, and the reaction was stopped by mixing samples with 2× LDS sample buffer (Invitrogen) supplemented with 3% (v/v) 2-mercaptoethanol. All protein samples were run on a 4–12% Bis-Tris SDS-PAGE gradient gel (Invitrogen) for 60 min at 140 V. The gel was stained with InstantBlue® (Abcam) and imaged.

The test system of data set [4] is human dermal fibroblasts (HDF). The experiment in a line: IncuCyte live-cell imaging cell death, HDF. The class given is cell-based. The settings on record: 50 µM (Appendix Fig. S4E). On the procedure:
Cells were seeded at varying densities (1000–8000 cells per well) after initial optimisation in a 96-well tissue culture-treated plate (Thermo Fisher Scientific). Cells were incubated o/n, and the next day, inhibitors and controls diluted in cell media were added to the cells to a final volume of 200 μL per well. Cell death was measured using PI (Sigma-Aldrich). Cells were imaged with four images per well every 2 h for up to 96 h using the IncuCyte live-cell analysis system (S3, Sartorius). Cell proliferation data were analysed using Microsoft Excel by normalising confluence to control conditions. For cell killing readouts, the number of PI-positive cells was normalised to the control conditions for each timepoint.

`O=C(c1ccc2[nH]ccc2c1)N1CCN(S(=O)(=O)c2ccc3c(c2)OCCO3)CC1` [WEHI-680]: on USP9X catalytic domain [1], the IC50 is 4.3 µM. The Kd at USP9X catalytic domain [2] (SPR, steady state, mean of three repeats, read-out: KD (steady state affinity)) was 3.51 ± 0.58 µM. Also, on USP9X catalytic domain [2] (compared with the WEHI compound series / WEHI-092), the “SPR kinetic fitting (on-rate/off-rate)” value was “much faster off-rate”.
Take `O=S(=O)(c1ccc2c(c1)OCCO2)N1CCN(c2ccc(-c3ccccc3)nn2)CC1` [WEHI-871]: the IC50 at USP9X catalytic domain [1] was greater than 100 µM.
As to `CCCC(NC(=O)/C(C#N)=C/c1nc(Cl)ccc1Cl)c1ccc(OCCN2CCOCC2)cc1` (centres unmarked) [EOAI3402143], the “effects on the purified USP9X catalytic domain” value on USP9X catalytic domain [3] is listed as “no or weak effects”. Besides, the “toxicity to HDFs” value in data set [4] was “cytotoxic”.
The like results for `CCC[C@H](NC(=O)/C(C#N)=C/c1cccc(Br)n1)c1ccccc1` [WP1130] were, in that order, “no or weak effects” and “cytotoxic”.

What is called IC50 is the concentration at which inhibition is half-maximal. For orientation: Kd means a measure of binding affinity in units of concentration.
